compound: Cc1ccc(Nc2nccc(N(C)c3ccc4c(C)n(C)nc4c3)n2)cc1S(N)(=O)=O [Pazopanib] + Cc1nc(Nc2ncc(C(=O)Nc3c(C)cccc3Cl)s2)cc(N2CCN(CCO)CC2)n1 [Dasatinib] (partner 0.075 µM); test: relative viability (nuclei count vs DMSO), 5 days (fraction); higher = more cells survive; settings: first compound 0.01 µM
How it was run: (§1)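 Lung cancer cell lines in 1536-well plates got either a single drug or a fixed anchor-drug dose together with five library-drug doses (not always all listed) in √10 steps, by pin tool, on the day after seeding. Nuclei were counted after 5 days, and relative viability is the treated-to-vehicle ratio of nuclei counts. Values are medians of duplicate plates.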

Cell Line	relative viability
NCI-H2170	0.536
ABC-1	0.481
SK-MES-1	0.361

same assay, conditions: first compound 0.03162 µM

Cell Line	relative viability
NCI-H2342	0.339
NCI-H1623	0.467
NCI-H838	0.278
NCI-H1650	0.375
NCI-H1993	0.6
NCI-H2347	0.307
PC-14	0.241
LCLC-103H	0.472
NCI-H596	0.617
NCI-H2126	0.528
EMC-BAC-2	0.381
NCI-H2085	0.255
HCC-366	0.655
NCI-H1666	0.833
NCI-H647	0.21
LK-2	0.305
NCI-H2087	0.989
NCI-H1395	0.487

Cell Line	relative viability
H3255	0.397
COR-L23	0.503
COR-L 105	0.296
LOU-NH91	0.523
ChaGo-K-1	0.622
NCI-H358	0.152
NCI-H3122	0.895
HOP-62	0.713
NCI-H522	0.865
SW 900	0.731
NCI-H727	0.378
NCI-H1793	0.357
NCI-H1792	0.728
NCI-H1944	0.226
NCI-H1563	0.451
NCI-H2170	0.572
ABC-1	0.635
SK-MES-1	0.34

same assay, conditions: first compound 0.1 µM

Cell Line	relative viability
NCI-H2342	0.305
NCI-H1623	0.509
NCI-H838	0.297
NCI-H1650	0.381
NCI-H1993	0.542
NCI-H2347	0.303
PC-14	0.288
LCLC-103H	0.495
NCI-H596	0.454
NCI-H2126	0.607
EMC-BAC-2	0.308
NCI-H2085	0.225
HCC-366	0.762
NCI-H1666	0.801
NCI-H647	0.224
LK-2	0.317
NCI-H2087	0.929
NCI-H1395	0.362

Cell Line	relative viability
H3255	0.295
COR-L23	0.553
COR-L 105	0.327
LOU-NH91	0.559
ChaGo-K-1	0.591
NCI-H358	0.158
NCI-H3122	0.756
HOP-62	0.681
NCI-H522	0.968
SW 900	0.596
NCI-H727	0.394
NCI-H1793	0.412
NCI-H1792	0.681
NCI-H1944	0.226
NCI-H1563	0.471
NCI-H2170	0.537
SK-MES-1	0.414

same assay, conditions: first compound 0.3162 µM

Cell Line	relative viability
NCI-H2342	0.297
NCI-H1623	0.488
NCI-H838	0.278
NCI-H1650	0.319
NCI-H1993	0.588
NCI-H2347	0.353
PC-14	0.267
LCLC-103H	0.451
NCI-H596	0.6
NCI-H2126	0.594
EMC-BAC-2	0.305
NCI-H2085	0.241
HCC-366	0.676
NCI-H1666	0.864
NCI-H647	0.243
LK-2	0.373
NCI-H2087	1.01
NCI-H1395	0.452

Cell Line	relative viability
H3255	0.286
COR-L23	0.449
COR-L 105	0.453
LOU-NH91	0.603
ChaGo-K-1	0.515
NCI-H3122	0.785
HOP-62	0.659
NCI-H522	0.897
SW 900	0.66
NCI-H727	0.444
NCI-H1793	0.372
NCI-H1792	0.834
NCI-H1944	0.237
NCI-H1563	0.485
NCI-H2170	0.511
ABC-1	0.551
SK-MES-1	0.474

same assay, conditions: first compound 1 µM

Cell Line	relative viability
NCI-H2342	0.278
NCI-H1623	0.608
NCI-H838	0.334
NCI-H1650	0.403
NCI-H1993	0.582
NCI-H2347	0.331
PC-14	0.266
LCLC-103H	0.459
NCI-H596	0.575
NCI-H2126	0.615
EMC-BAC-2	0.312
NCI-H2085	0.265
HCC-366	0.733
NCI-H1666	0.772
NCI-H647	0.25
LK-2	0.314
NCI-H2087	0.72
NCI-H1395	0.432

Cell Line	relative viability
H3255	0.454
COR-L23	0.56
COR-L 105	0.406
LOU-NH91	0.565
ChaGo-K-1	0.7
NCI-H358	0.258
NCI-H3122	0.5
HOP-62	0.718
NCI-H522	0.918
SW 900	0.543
NCI-H727	0.413
NCI-H1793	0.533
NCI-H1792	0.774
NCI-H1944	0.247
NCI-H1563	0.5
NCI-H2170	0.639
ABC-1	0.637
SK-MES-1	0.383

compound: Cc1ccc(Nc2nccc(N(C)c3ccc4c(C)n(C)nc4c3)n2)cc1S(N)(=O)=O [Pazopanib] + O=C(CCCCCCC(=O)Nc1ccccc1)NO [Vorinostat] (partner 1 µM); test: as above; settings: first compound 0.01 µM
How it was run: as §1

Cell Line	relative viability
NCI-H2342	0.671
NCI-H838	0.72
NCI-H1650	0.654
NCI-H2347	0.522
PC-14	0.81
LCLC-103H	0.692
NCI-H596	0.598
NCI-H2126	0.588
NCI-H2085	0.674
HCC-366	0.239
NCI-H1666	1.15
NCI-H647	0.443
LK-2	0.201
NCI-H2087	0.945
NCI-H1395	0.586
H3255	0.709

Cell Line	relative viability
COR-L23	0.446
COR-L 105	0.867
LOU-NH91	0.873
ChaGo-K-1	0.743
NCI-H358	0.752
NCI-H3122	0.794
HOP-62	0.494
HCC-44	1.11
NCI-H522	0.603
SW 900	0.465
NCI-H727	1.17
NCI-H1944	0.487
NCI-H2170	0.624
ABC-1	1.04
SK-MES-1	1.03

same assay, conditions: first compound 0.03162 µM

Cell Line	relative viability
NCI-H2342	0.789
NCI-H838	0.734
NCI-H1650	0.615
NCI-H1993	0.851
NCI-H2347	0.593
PC-14	0.87
LCLC-103H	0.804
NCI-H596	0.634
NCI-H2126	0.747
EMC-BAC-2	0.512
NCI-H2085	0.849
HCC-366	0.336
NCI-H1666	1.09
NCI-H647	0.59
LK-2	0.26
NCI-H2087	0.642
NCI-H1395	0.768

Cell Line	relative viability
H3255	0.841
COR-L23	0.5
COR-L 105	0.959
IA-LM	0.977
LOU-NH91	0.964
ChaGo-K-1	0.772
NCI-H358	0.656
NCI-H3122	0.926
HOP-62	0.584
HCC-44	1.01
NCI-H522	0.874
SW 900	0.33
NCI-H1793	0.753
NCI-H1944	0.557
NCI-H2170	0.848
ABC-1	1.38
SK-MES-1	0.989

same assay, conditions: first compound 0.1 µM

Cell Line	relative viability
NCI-H2342	0.704
NCI-H838	0.816
NCI-H1650	0.605
NCI-H1993	0.832
NCI-H2347	0.736
PC-14	0.669
LCLC-103H	0.753
NCI-H596	0.578
NCI-H2126	0.76
EMC-BAC-2	0.232
NCI-H2085	0.758
HCC-366	0.414
NCI-H1666	0.993
NCI-H647	0.706
LK-2	0.252
NCI-H2087	0.704
NCI-H1648	0.337
NCI-H1395	0.673

Cell Line	relative viability
H3255	0.701
COR-L23	0.424
COR-L 105	0.765
IA-LM	1.1
LOU-NH91	0.917
ChaGo-K-1	0.756
NCI-H358	0.782
NCI-H3122	0.89
HOP-62	0.474
HCC-44	1.08
NCI-H522	0.851
NCI-H727	1.06
NCI-H1793	0.637
NCI-H1944	0.583
NCI-H2170	0.877
ABC-1	0.731
SK-MES-1	1.27

same assay, conditions: first compound 0.3162 µM

Cell Line	relative viability
NCI-H2342	0.762
NCI-H838	0.706
NCI-H1650	0.59
NCI-H1993	0.741
NCI-H2347	0.587
PC-14	0.786
LCLC-103H	0.823
NCI-H596	0.691
NCI-H2126	0.822
EMC-BAC-2	0.472
NCI-H2085	0.838
HCC-366	0.379
NCI-H1666	1.06
NCI-H647	0.394
LK-2	0.236
NCI-H2087	0.733
NCI-H1648	0.535
NCI-H1395	0.734

Cell Line	relative viability
H3255	0.901
COR-L23	0.508
COR-L 105	0.878
IA-LM	0.964
LOU-NH91	1.02
ChaGo-K-1	0.757
NCI-H358	0.728
NCI-H3122	1.02
HOP-62	0.656
HCC-44	1.04
NCI-H522	0.922
SW 900	0.545
NCI-H727	1.15
NCI-H1793	0.811
NCI-H1944	0.604
NCI-H2170	0.796
ABC-1	1.2
SK-MES-1	1.09

same assay, conditions: first compound 1 µM

Cell Line	relative viability
NCI-H2342	0.687
NCI-H838	0.794
NCI-H1650	0.704
NCI-H1993	0.763
NCI-H2347	0.83
PC-14	0.751
LCLC-103H	0.842
NCI-H596	0.642
NCI-H2126	0.732
EMC-BAC-2	0.432
NCI-H2085	0.86
HCC-366	0.81
NCI-H1666	0.909
NCI-H647	0.421
LK-2	0.235
NCI-H2087	0.317
NCI-H1648	0.376
NCI-H1395	1.07

Cell Line	relative viability
H3255	0.793
COR-L23	0.514
COR-L 105	0.882
IA-LM	0.945
LOU-NH91	0.942
ChaGo-K-1	0.727
NCI-H358	0.694
NCI-H3122	1.05
HOP-62	0.496
HCC-44	1.15
NCI-H522	1.02
SW 900	0.53
NCI-H727	1.08
NCI-H1793	1.11
NCI-H1944	0.648
NCI-H2170	0.829
ABC-1	1.27
SK-MES-1	1.07
